{"source": "paper PMC3575220", "about": "“Inhibition of dengue NS2B-NS3 protease and viral replication in Vero cells by recombinant retrocyclin-1” (BMC Infectious Diseases, 2012)", "key": {"[1]": {"conditions": "cited from earlier work", "from_the_text": "We conducted this study to evaluate the effect of RC-1, a cationic cyclic peptide on the activity of dengue protease as a target to inhibit replication of dengue virus. The RC-1 was produced inexpensively as a soluble recombinant peptide in E. coli and the tri-disulphide bonds were correctly reformed in alkaline and diluted environment. […] Furthermore, this peptide is able to provide long-lasting prote ..."}, "dengue NS2B-NS3pro": {"biological_target": "T1, dengue NS2B-NS3pro (Dengue virus type 2, UniProt P29990)", "T1 construct": "6XHis (pQE30 vector) (N); made in house; host or cells: Escherichia coli XL1-Blue", "assay": "Fluorogenic NS2B-NS3pro protease inhibition assay", "assay_type": "biochemical, DENV-2", "conditions": "pH 8.5, 200 mM Tris–HCl, 20 μM Boc-Gly-Arg-Arg-AMC, 2 μM enzyme, 30 min pre-incubation, 30 min reaction, fluorescence ex 350/em 440 nm, triplicates, ± SD", "description": "The bioassay used in this study was published by Rothan and co-workers. In brief, endpoint reaction mixtures with total volume of 200 μl were prepared consisted of 20 μM fluorogenic peptide substrate (Boc-Gly-Arg-Arg-AMC), 2 μM of recombinant NS2B-NS3pro, with or without RC-1 of varying concentrations, buffered at pH 8.5 with 200 mM Tris–HCl. The RC-1 was initially prepared in Tris–HCl buffer and assayed at five different concentrations, ranging from 9.3 - 150 μM. Three types of reactions which are buffer, buffer with enzyme and buffer with enzyme and different concentrations of RC-1were incubated at 28°C, 37°C and 40°C for 30 minutes. Subsequently, the substrate was added to each reaction mixture and incubated at same temperatures for another 30 minutes. Measurements were performed in triplicates using Tecan Infinite M200 Pro fluorescence spectrophotometer. Substrate cleavage was normalized against buffer only (control) and optimized at the emission at 440 nm upon excitation at 350 nm. The readings were then used for calculating Km values of peptide substrate and IC50 values of peptide inhibitors using non-linear regression models in GraphPad Prism 5.0 software as previously described.\nFigure 4 The inhibition potential of RC-1 against the activity of DENV-2 NS2B-NS3pro. End point protease inhibition assay was carried out to evaluate the inhibitory potential of RC-1 against the protease’s ability to cleave a fluorogenic peptide substrate (Boc-Gly-Arg-Arg-AMC). The reaction mixtures consisted of 20 μM substrate, 2 μM of enzyme, with or without RC-1 of varying concentrations incubated at 28°C, 37°C or 40°C for 30 minutes. The results were normalized with the substrate alone and substrate with protease incubated at same temperatures. […] 2'; read as 1.2"}, "Vero cells": {"test_system": "Vero cells", "assay": "Maximum non-toxic dose test (cell proliferation assay)", "assay_type": "cell-based", "description": "Vero cells were seeded at 1 × 10^4 cells per well in triplicate in 96 well plates and propagated at optimal conditions (37°C, 5% CO2 in humidified incubator). Recombinant RC-1 was diluted to serial concentrations (37.5, 75, 100, 125, 150 and 175 μM) with DMEM media supplemented with 2% FBS. Each dilution was tested in triplicate. Two control wells were included in each experiment: culture medium without RC-1 and culture medium with different concentrations of the RC-1 in the absence of cells to subtract the background value of RC-1 in the culture medium. The cell cultures were analyzed at 24, 48 and 72 hours using Non-Radioactive Cell Proliferation assay (Promega, USA) according to the manufacturer’s instructions.\n(§1) Figure 5 The percentage of viral reduction in Vero cells after different treatments with RC-1. (A) RC-1 was diluted to various concentrations (37.5, 75, 100, 125, 150 and 175 μM) with DMEM media supplemented with 2 % FBS and added to the cell culture. The viability of cells was analyzed at 24, 48 and 72 hrs using Non-Radioactive Cell Proliferation assay. (B) The cells were grown under the optimal conditions and infected with DENV-2 at the MOI of 2. The MNTD of RC-1 (150 μM) was used to treat infected Vero cells and the results were normalized with infected cells without RC-1 as controls. Pre, simultaneous and post-infection treatments with RC-1 were applied at 24, 48 and 72 hrs of each infection. The percentage of inhibition was the highest for simultaneous treatment compared to pre and post-treatment. (Two way ANOVA was used with Bonferroni post-test, P < 0.0001)."}, "[2]": {"test_system": "yeast (Saccharomyces cerevisiae)", "assay": "Disc diffusion susceptibility test, yeast", "assay_type": "cell-based", "conditions": "0.1 mg/ml RC-1, YPD agar, 30°C, clear circular zone", "description": "(§2) The disc diffusion susceptibility test was used to evaluate antimicrobial activity of the recombinant RC-1. The samples of recombinant RC-1 before and after refolding applications (100 μg/ml) were dropped onto a filter paper discs (0.1 mg/ml) and left to dry at room temperature. Then, the filters paper discs placed on an E. coli-inoculated Mueller-Hinton agar and a Saccharomyces cerevisiae inoculated yeast extract peptone dextrose (YPD) agar plates. Both E. coli and yeast inoculated plates were inoculated for 16 hrs at […] and 30°C, respectively.\n(§3) Figure 2 Antimicrobial activity of recombinant RC-1 after refolding. Each sample of RC-1 before and after refolding (0.1 mg/ml) was dropped on filter papers discs and left to dry at room temperature. The dry filter paper discs were placed on E. coli and yeast-inoculated antibiotic-free Mueller-Hinton-gar and YPD-agar plates respectively and incubated overnight at 37°C (E. coli) or 30°C (yeast)."}, "DENV-2 in Vero cells": {"test_system": "DENV-2 in Vero cells", "assay": "DENV-2 RNA reduction in infected Vero cells by real-time PCR", "assay_type": "cell-based", "conditions": "for reduction in viral replication / reduction in total viral RNA copies: 150 μM RC-1, MOI of 2; for reduction in total viral RNA copies: ± SD", "description": "Three independent experiments were carried out for pre, simultaneous and post-infection treatments with RC-1 at 24, 48 and 72 hrs of each infection in triplicates. Vero cells were grown in a 24-well tissue culture plate (1 × 10^5 cells/well), incubated 24 hrs under optimal conditions and infected with DENV-2 (MOI of 2). For pre-treatment infection, 150 μM of RC-1 was added to the cells before virus inoculation and incubated for 24 hrs. Afterwards, DENV-2 supernatant was added, followed by incubation for 1 hr with gentle shaking every 10 min for optimal virus to cells contact. The virus supernatant was removed, and the cells were washed twice with fresh serum-free DMEM media to remove residual virus. New complete DMEM media were added and the cultures were incubated for 24, 48 and 72 hrs at 37°C, supplemented with 5% CO2. Same applications were used for simultaneous treatment infection except the peptide was mixed with the virus supernatant and incubated at 37°C for 1 h, and then inoculated onto Vero cells. The post-treatment infection was carried out after inoculation of Vero cells with DENV-2 and the complete DMEM medium was added containing the RC-1. Then, the cultures were incubated for 24, 48 and 72 hrs at 37°C and 5% CO2 with three wells of infected cells in each experiment were kept without RC-1 as controls. Cellular supernatants were collected and stored at −80°C for viral quantification using real time PCR.\nFor quantification of copy number of DENV-2 RNA, the standard curve was generated by 10-fold serial dilution of known copies of DENV-2 RNA. Viral RNA was extracted from culture supernatant using QIAmp viral RNA mini kit (Qiagen, Germany) according to the manufacturer’s instructions. A fragment located at the 5'UTR region of the virus genome was used to generate the primers. One-step RT-PCR using SyBr Green Master Kit (Qiagen, Germany) was used to conduct absolute quantification using ABI7300 machine from Applied Biosystems (Foster City, CA). The PCR profile was 1 cycle of 50°C for 2 min, 1 cycle of 95°C for 10 min, 40 cycles of 10 sec denaturation at 95°C, 20 sec annealing at 57.7°C with a single fluorescence emission measurement and 30 sec extension at 72°C, followed by 5 min at 72°C for final extension. Dissociation curve analysis was added to the end of each run. Results were analyzed using the company's Sequence Detection Software Version 1.3.\nas §1"}, "[3]": {"conditions": "up to 500 μg/ml (250 μM); cited from earlier work", "from_the_text": "(§4) It has been known that the compound toxicity could hinder the development of drugs against dengue virus."}, "different cell lines": {"test_system": "different cell lines", "conditions": "up to 500 μg/ml (250 μM); cited from earlier work", "from_the_text": "as §4"}, "E. coli": {"test_system": "E. coli", "assay": "Disc diffusion susceptibility test, E. coli", "assay_type": "cell-based", "conditions": "0.1 mg/ml RC-1, Mueller-Hinton agar, clear circular zone", "description": "as §2, §3"}}, "note": "Where no end group is shown, it is not given here.", "data": [{"sequence": "GICRCICGRGICRCICGR (also: bicyclic or more (positions not given here)) [RC-1, retrocyclin-1, disulphide cyclic peptide, theta-defensin analogue, circular, cationic, tri-disulphide bonded (Cys3-Cys16, Cys5-Cys14, Cys7-Cys12)]", "values": [{"measurement": "fold potency of cyclic RC-1 over the open chain analogue", "setting": "[1]", "value": 3, "unit": "fold"}, {"measurement": "IC50", "setting": "dengue NS2B-NS3pro; 28°C", "value": "46.1 ± 1.7", "unit": "µM"}, {"measurement": "IC50", "setting": "dengue NS2B-NS3pro; 37°C", "value": "21.4 ± 1.6", "unit": "µM"}, {"measurement": "IC50", "setting": "dengue NS2B-NS3pro; 40°C", "value": "14.1 ± 1.2", "unit": "µM"}, {"measurement": "cellular morphological abnormalities", "setting": "Vero cells; Vero cells", "value": "no noticeable cellular morphological abnormalities"}, {"measurement": "cellular toxicity (in words)", "setting": "Vero cells; Vero cells, 150 μM", "value": "low cellular toxicity"}, {"measurement": "maximum non-toxic dose (MNTD)", "setting": "Vero cells; all three incubation periods, 24, 48 and 72 hrs, 37.5-175 μM tested, DMEM 2% FBS, triplicate", "value": 150, "unit": "µM"}, {"measurement": "antimicrobial activity", "setting": "[2]", "value": "exhibited antimicrobial activity"}, {"measurement": "reduction in viral replication", "setting": "DENV-2 in Vero cells; post-treatment, 48 hrs, triplicates", "value": 30, "unit": "%"}, {"measurement": "reduction in viral replication", "setting": "DENV-2 in Vero cells; post-treatment, 72 hrs, triplicates", "value": 45, "unit": "%"}, {"measurement": "viral replication (in words)", "setting": "DENV-2 in Vero cells; pre, simultaneous and post infection treatment modes, maximum non-toxic dose", "value": "significantly declined"}, {"measurement": "reduction in viral replication", "setting": "DENV-2 in Vero cells; pre-treatment (24 hrs before virus), 48 hrs, triplicates", "value": 40, "unit": "%"}, {"measurement": "reduction in viral replication", "setting": "DENV-2 in Vero cells; pre-treatment (24 hrs before virus), 72 hrs, triplicates", "value": 38, "unit": "%"}, {"measurement": "reduction in total viral RNA copies", "setting": "DENV-2 in Vero cells; simultaneous treatment, 24 hrs, triplicates", "value": "45.5% ± 4.2"}, {"measurement": "reduction in viral replication", "setting": "DENV-2 in Vero cells; simultaneous treatment, 72 hrs", "value": 85, "unit": "%"}, {"measurement": "reduction in total viral RNA copies", "setting": "DENV-2 in Vero cells; simultaneous treatment, 72 hrs, triplicates", "value": "85% ± 7.1"}, {"measurement": "haemolytic activity", "setting": "[3]", "value": "neither haemolytic activity nor cytotoxicity"}, {"measurement": "cytotoxicity in different cell lines", "setting": "different cell lines", "value": "neither haemolytic activity nor cytotoxicity"}, {"measurement": "antimicrobial activity", "setting": "E. coli", "value": "exhibited antimicrobial activity"}]}]}
